As a reminder, the Kp is tissue or fluid exposure divided by exposure in the circulation.

Each structure is given as a SMILES string.

The text below walks through data of paper PMC3306502 (Cancer research, 2012).

In one data set the test system is LNCaP/AR tumors. The data set is described as follows: Ki67 IHC and TUNEL-staining of LNCaP/AR tumor-tissue from castrate mice. Particulars: 10 mg/kg/day, 25d.
Data set [1] can be described thus: steady-state plasma- and brain-tissue levels in mice. Particulars: 10 mg/kg/day; for Brain C24hr / Plasma C24hr: 28d daily-dosing; for Brain C24hr: 24h after final-dose; for Plasma C24hr: 24h after final-dose (brain study); for Kp: mouse, brain.
Data set [2] concerns PC-3 prostate cancer cells. As to the kind of experiment: growth of AR-negative PC-3 cells.
For the next data set, the system named is prostate and epididymis. To be noted: 10 mg/kg/day for 28 days.
In the next data set the test system is AR. As to the kind of experiment: AR binding-assay using MDA-MB-453 cell-extracts.
Data set [3] deals with LNCaP/AR-luc xenograft tumors. The data set is described as follows: luciferase-imaging of LNCaP/AR-luc xenograft tumors in castrate male mice. Particulars: 10 mg/kg/day oral, 17 days.
Data set [4] relates to LNCaP/AR(cs) xenograft tumors. As to the kind of experiment: LNCaP/AR. Particulars: for tumors with >50% regression (volume): 10 mg/kg/day daily-gavage.
In a further data set the test system is AR-regulated genes. As to the kind of experiment: qRT-PCR analysis of AR-regulated genes in LNCaP/AR. Particulars: absence of R1881; up to 10 μM. On the technique in general: In qPCR the cycle at which signal appears reflects the starting amount.
A short description of data set [5]: steady-state plasma and tumor-tissue concentrations in LNCaP/AR. Particulars: for Plasma C24hr / Tumor C24hr: 28d dosing, mean ± SD; for Plasma C24hr: 24h after final dose; for Tumor C24hr: LNCaP/AR(cs) xenograft tumor-tissue; for Kp: mouse, tumor, oral.
For another data set, the system named is VCaP cells. As to the kind of experiment: VCaP proliferation assay. Particulars: 7d treatment; for VCaP proliferation, antagonist-mode: with 30pM R1881; for VCaP proliferation, agonist-mode: without R1881.
The next data set concerns LNCaP/AR(cs) xenografts. The data set is described as follows: LNCaP/AR. To be noted: 28d, intact (non-castrate) mice.
The subject of data set [6] is CRPC. To be noted: chemotherapy-naïve and -treated CRPC patients; cited from earlier work.
Data set [7] relates to CRPC. To be noted: plus prednisone; CRPC patients previously treated with docetaxel; cited from earlier work.

Regarding `CNC(=O)c1ccc(N2C(=S)N(c3cnc(C#N)c(C(F)(F)F)c3)C(=O)C23CCC3)cc1F` [ARN-509], the “increase in apoptotic rate (TUNEL) versus vehicle” value in the data set with LNCaP/AR tumors was 10 fold. In addition, in data set [1], the “Brain C24hr” value amounted to 0.479 ± 0.132 µg/g, the “Plasma C24hr” value was determined as 1640 ± 300 ng/mL and the Kp was found to be 0.293 ± 0.063. In the data set “dog pharmacokinetics”, the oral bioavailability entry is reported as “high” and the plasma half-life result was “long”. Further, the “effect on growth of AR-negative PC-3 cells” value in data set [2] is “no significant effect on growth”. For the same compound, in the data set with prostate and epididymis, the “apoptotic-rate in dog prostates (TUNEL-staining)” value is recorded as “no change in apoptotic-rate”, the “epididymis histopathology / spermatozoa” value is reported as “contained minimal spermatozoa” and the prostate histopathology result is “lack of glandular secretory activity”. Also, the “reduction in epididymis weight” value with prostate and epididymis (not statistically significant) is listed as 1.7 fold. Besides, in the data set on prostate and epididymis (p<0.05 vs vehicle), the “reduction in weight of dog prostates” value is recorded as 3 fold. The “AR binding in cell-extracts, ARN-509 vs bicalutamide” value in the data set with AR was “does not differentiate between ARN-509 and bicalutamide”. Also, in “mouse pharmacokinetics”, the oral bioavailability result is on record as “high” and the plasma half-life result is on record as “long”. For the same compound, the “androgen-driven luciferase reporter-gene activity normalized to tumor volume, vs vehicle” value in data set [3] is on record as “consistently reduced”. Also, the “tumors with >50% regression (volume)” value in data set [4] (day 28, castrate mice) was 8/10. Besides, the “tumors no longer palpable” value in data set [4] (10 mg/kg/day, day 28, of 10 tumors) worked out at 2. Moreover, the “animals with >50% reduction in tumor-volume” value (shortened to “animals with >50% reduction”) in [4] (100 mg/kg/day, day 28, castrate mice) was 13/19. Also, the “optimal biological dose (OBD: lowest dose yielding maximum efficacy)” value in data set [4] (LNCaP/AR model) is reported as 10–30 mg/kg/day. Also, the “agonist activity on AR-regulated gene expression” value (“agonist activity” for short) with AR-regulated genes is listed as “did not exhibit agonist activity”. For the same compound, in data set [5] (1 mg/kg/day), the “Plasma C24hr” value came out at 425 ± 160 ng/mL, the “Tumor C24hr” value worked out at 0.991 ± 0.30 µg/g and the Kp turned out to be 2.59 ± 0.11. In data set [5] (10 mg/kg/day), the “Plasma C24hr” value came to 3310 ± 980 ng/mL, the “Tumor C24hr” value worked out at 3.26 ± 0.82 µg/g and the Kp was found to be 1.07 ± 0.44. For the same compound, in the data set with VCaP cells, the “VCaP proliferation, antagonist-mode” value was “antagonized the proliferative effect of R1881” and the “VCaP proliferation, agonist-mode” value was “fails to stimulate proliferation”. Also, in the data set on LNCaP/AR(cs) xenografts (10 mg/kg/day), the anti-tumor effect entry is reported as “largely confined to stabilization of tumor-growth”. Moreover, the “animals with robust tumor-regression (>50% reduction in starting tumor volume)” value with LNCaP/AR(cs) xenografts (30 mg/kg/day) was 6/8.
As to `CNC(=O)c1ccc(N2C(=S)N(c3ccc(C#N)c(C(F)(F)F)c3)C(=O)C2(C)C)cc1F` [MDV3100, reference compound], in data set [1], the “Brain C24hr” value stood at 2.01 ± 0.83 µg/g, the “Plasma C24hr” value is 10500 ± 2300 ng/mL and the concentration ratio (Kp) amounted to 0.188 ± 0.044. In data set [4] (30 mg/kg/day, day 28, castrate mice), the “animals with >50% reduction” value is 3 of 19. Also, in data set [4] (mouse, in vivo), the “animals with >50% reduction” value is recorded as 12/19 and the “optimal biological dose (OBD: lowest dose yielding maximum efficacy)” value is recorded as 30–100 mg/kg/day. Further, the “agonist activity” value in the data set with AR-regulated genes is given as “did not exhibit agonist activity”. Moreover, in data set [5] (1 mg/kg/day), the “Plasma C24hr” value amounted to 1080 ± 260 ng/mL and the “Tumor C24hr” value is 0.439 ± 0.12 µg/g. Further, in [5] (10 mg/kg/day), the “Plasma C24hr” value was determined as 11000 ± 2500 ng/mL and the “Tumor C24hr” value amounted to 3.39 ± 1.50 µg/g. In addition, in the data set with CRPC [6], the “patients with significant serum-PSA responses (>50% decrease)” value is reported as over 50%.
For `CC(=O)O[C@H]1CC[C@@]2(C)C(=CC[C@@H]3[C@@H]2CC[C@]2(C)C(c4cccnc4)=CC[C@@H]32)C1` [abiraterone acetate], in the data set with CRPC [7], the “increase in overall survival over control (prednisone only)” value is 3.9 months.
On to `CC(O)(CS(=O)(=O)c1ccc(F)cc1)C(=O)Nc1ccc(C#N)c(C(F)(F)F)c1` (stereo not drawn) [bicalutamide, reference compound], for which the “tumors with >50% regression (volume)” value in data set [4] (day 28, castrate mice) is reported as 1/10. For the same compound, the “agonist activity” value in the data set with AR-regulated genes was “altered gene-expression consistent with its well-documented agonist activity”. In the data set on VCaP cells, the “VCaP proliferation, antagonist-mode” value is recorded as “only partially antagonized the effects of R1881” and the “VCaP proliferation, agonist-mode” value was “induced cell-proliferation in a dose-dependent manner”.
